The values below come from ChEMBL document CHEMBL1165922, “Vitamin D receptor agonist/histone deacetylase inhibitor molecular hybrids” (Bioorg Med Chem, 2010).

Calls of active or inactive are those of the source. The rule behind the calls is not given here.

In data set [1] the test system is Mus musculus. The experiment in a line: Toxicity in FVB mouse assessed as calcium level in blood at 240 pmol/day administered via osmotic pump for 6 to 7 days measured on day 6 by microchemistry (RVb = 2 mmol/L). It is filed as organism-based. As to conditions: in vivo, other.
Data set [2] concerns Mus musculus. Description: Toxicity in FVB mouse assessed as calcium level in blood at 1200 pmol/day administered via osmotic pump for 6 to 7 days measured on day 3 by microchemistry (RVb = 2.24 mmol/L). It is filed as organism-based. The note with it: in vivo, other.
A further data set concerns the target Histone deacetylase 2 (Homo sapiens, UniProt Q92769). The experiment in a line: Inhibition of HDAC2 after 10 mins by fluorometric assay.
The target in the next data set is T1, Vitamin D3 receptor (Homo sapiens, UniProt P11473).
T1 sequence (P11473 whole entry): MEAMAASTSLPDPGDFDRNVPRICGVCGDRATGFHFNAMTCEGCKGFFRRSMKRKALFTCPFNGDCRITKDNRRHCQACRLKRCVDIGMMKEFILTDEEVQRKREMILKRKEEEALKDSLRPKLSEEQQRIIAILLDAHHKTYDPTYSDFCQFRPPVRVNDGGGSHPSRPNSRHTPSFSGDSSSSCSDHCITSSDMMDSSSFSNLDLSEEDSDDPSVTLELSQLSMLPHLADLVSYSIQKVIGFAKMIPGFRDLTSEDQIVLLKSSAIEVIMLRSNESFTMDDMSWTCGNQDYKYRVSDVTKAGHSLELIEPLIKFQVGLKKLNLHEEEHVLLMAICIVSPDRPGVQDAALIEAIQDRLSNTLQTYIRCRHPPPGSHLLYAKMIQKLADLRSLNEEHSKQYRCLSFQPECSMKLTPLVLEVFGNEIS

In data set [3] the test system is Mus musculus. The experiment in a line: Toxicity in FVB mouse assessed as calcium level in blood at 240 pmol/day administered via osmotic pump for 6 to 7 days measured on day 3 by microchemistry (RVb = 2.24 mmol/L). The note with it: in vivo, other. It counts as organism-based.
The target of the next data set is Histone deacetylase 3 (Homo sapiens, UniProt O15379). The experiment in a line: Inhibition of HDAC3 after 10 mins by fluorometric assay.
Histone deacetylase 3, sequence (O15379 whole entry): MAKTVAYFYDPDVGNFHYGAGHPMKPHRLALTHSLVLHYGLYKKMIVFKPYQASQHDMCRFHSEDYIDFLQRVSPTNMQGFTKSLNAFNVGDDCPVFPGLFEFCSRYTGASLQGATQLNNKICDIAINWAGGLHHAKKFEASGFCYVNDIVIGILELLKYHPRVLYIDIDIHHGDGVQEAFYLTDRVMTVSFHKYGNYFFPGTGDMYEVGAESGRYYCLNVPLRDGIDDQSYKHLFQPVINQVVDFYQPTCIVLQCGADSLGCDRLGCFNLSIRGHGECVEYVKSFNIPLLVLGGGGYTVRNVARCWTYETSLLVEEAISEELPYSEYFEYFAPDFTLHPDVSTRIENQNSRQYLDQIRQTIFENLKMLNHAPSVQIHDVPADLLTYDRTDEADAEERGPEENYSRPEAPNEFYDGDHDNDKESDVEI
For data set [4], the target named is T2, Protein deacetylase HDAC6 (Homo sapiens, UniProt Q9UBN7).
T2 sequence (Q9UBN7 whole entry): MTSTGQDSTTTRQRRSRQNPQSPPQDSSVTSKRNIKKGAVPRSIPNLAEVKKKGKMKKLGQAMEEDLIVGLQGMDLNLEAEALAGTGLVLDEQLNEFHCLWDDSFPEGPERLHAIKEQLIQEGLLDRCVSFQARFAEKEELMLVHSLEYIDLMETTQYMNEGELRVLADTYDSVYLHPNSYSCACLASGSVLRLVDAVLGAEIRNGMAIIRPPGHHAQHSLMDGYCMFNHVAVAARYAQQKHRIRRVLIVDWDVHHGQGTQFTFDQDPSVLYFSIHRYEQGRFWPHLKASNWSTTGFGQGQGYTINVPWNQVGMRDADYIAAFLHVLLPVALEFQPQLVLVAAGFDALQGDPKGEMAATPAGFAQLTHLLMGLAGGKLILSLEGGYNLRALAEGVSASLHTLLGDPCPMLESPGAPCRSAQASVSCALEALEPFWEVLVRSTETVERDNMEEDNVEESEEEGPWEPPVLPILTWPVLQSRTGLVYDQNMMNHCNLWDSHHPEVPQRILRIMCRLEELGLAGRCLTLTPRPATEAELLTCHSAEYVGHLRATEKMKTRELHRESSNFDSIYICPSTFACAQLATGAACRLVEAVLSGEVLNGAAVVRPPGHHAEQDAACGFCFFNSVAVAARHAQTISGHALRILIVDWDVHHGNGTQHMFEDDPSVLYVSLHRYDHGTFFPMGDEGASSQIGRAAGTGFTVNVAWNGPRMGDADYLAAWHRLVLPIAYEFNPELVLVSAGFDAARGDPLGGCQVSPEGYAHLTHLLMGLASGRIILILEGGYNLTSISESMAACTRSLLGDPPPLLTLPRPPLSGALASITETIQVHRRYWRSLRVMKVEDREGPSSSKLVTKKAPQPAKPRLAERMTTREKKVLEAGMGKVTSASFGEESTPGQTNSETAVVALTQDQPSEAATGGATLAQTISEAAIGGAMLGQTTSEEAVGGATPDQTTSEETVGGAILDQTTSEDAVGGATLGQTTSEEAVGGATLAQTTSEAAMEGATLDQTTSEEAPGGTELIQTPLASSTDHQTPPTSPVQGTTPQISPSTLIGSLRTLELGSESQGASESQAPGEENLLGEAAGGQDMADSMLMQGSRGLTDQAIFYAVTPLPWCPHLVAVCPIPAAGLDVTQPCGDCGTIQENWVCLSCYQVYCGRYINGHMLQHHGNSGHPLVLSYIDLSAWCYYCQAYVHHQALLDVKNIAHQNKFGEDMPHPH
Description: Inhibition of HDAC6 after 10 mins by fluorometric assay.

Data set [5] concerns Mus musculus. The experiment in a line: Toxicity in FVB mouse assessed as calcium level in blood at 1200 pmol/day administered via osmotic pump for 6 to 7 days measured on day 6 by microchemistry (RVb = 2 mmol/L). The note with it: in vivo, other. It is filed as organism-based.
For data set [6], the system named is Mus musculus. The experiment in a line: Toxicity in FVB mouse assessed as calcium level in blood at 1200 pmol/day administered via osmotic pump for 6 to 7 days measured on day 7 by microchemistry (RVb = […] mmol/L). It counts as organism-based. As to conditions: in vivo, other.
The subject of data set [7] is Mus musculus. The experiment in a line: Toxicity in FVB mouse assessed as calcium level in blood at 240 pmol/day administered via osmotic pump for 6 to 7 days measured on day 4 by microchemistry (RVb = 2.11 mmol/L). As to conditions: in vivo, other. It counts as organism-based.
The test system of data set [8] is Mus musculus. Description: Toxicity in FVB mouse assessed as calcium level in blood at 240 pmol/day administered via osmotic pump for 6 to 7 days measured on day 7 by microchemistry (RVb = […] mmol/L). The note with it: in vivo, other. It counts as organism-based.
Data set [9] has as its system Mus musculus. Description: Toxicity in FVB mouse assessed as calcium level in blood at 1200 pmol/day administered via osmotic pump for 6 to 7 days measured on day 4 by microchemistry (RVb = 2.11 mmol/L). It counts as organism-based. The note with it: in vivo, other.
For another data set, the system named is AT84. The experiment in a line: Antiproliferative activity against mouse AT84 cells at 100 to 500 nM after 48 hrs by EdU incorporation assay. It counts as functional, cell-based.

Histone deacetylase 2, sequence (Q92769 whole entry): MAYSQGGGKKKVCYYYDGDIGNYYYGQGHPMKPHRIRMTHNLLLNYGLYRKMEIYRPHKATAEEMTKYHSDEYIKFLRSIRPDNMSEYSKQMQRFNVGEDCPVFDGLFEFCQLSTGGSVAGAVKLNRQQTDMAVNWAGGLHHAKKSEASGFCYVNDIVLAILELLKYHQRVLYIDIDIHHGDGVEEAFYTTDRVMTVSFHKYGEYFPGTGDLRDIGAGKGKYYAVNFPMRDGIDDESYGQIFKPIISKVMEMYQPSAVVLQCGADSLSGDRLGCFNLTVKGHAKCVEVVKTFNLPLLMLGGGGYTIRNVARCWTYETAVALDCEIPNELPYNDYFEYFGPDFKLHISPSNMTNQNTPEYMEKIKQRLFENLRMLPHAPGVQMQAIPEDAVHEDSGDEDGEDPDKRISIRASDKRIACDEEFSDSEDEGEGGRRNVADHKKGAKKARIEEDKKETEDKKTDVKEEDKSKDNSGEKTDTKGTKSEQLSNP
Description for Vitamin D3 receptor: Binding affinity to VDR ligand binding domain by fluorescence polarization competition assay

As to `CC(/C=C/C(=O)NO)=C\[C@@H](C)[C@H]1CC[C@H]2/C(=C/C=C3\C[C@@H](O)C[C@@H](O)C3)CCC[C@]12C` [TRICIFEROL], the Activity stood at 2.03 mmol/L with Mus musculus [1], 1.92 mmol/L in the data set on Mus musculus [2], 2.11 mmol/L in the data set with Mus musculus [3] and 2.08 mmol/L with Mus musculus [5]. Moreover, the IC50 against Histone deacetylase 2 was found to be 10.4 µM; against Vitamin D3 receptor, 0.087 µM; against Histone deacetylase 3, 13.3 µM; in data set [4], 0.58 µM.

Consider `C[C@H](CCCCCNS(N)(=O)=O)[C@H]1CC[C@H]2/C(=C/C=C3C[C@@H](O)C[C@H](O)C3)CCC[C@]12C`, for which the IC50 worked out at 0.196 µM at Vitamin D3 receptor, 605 µM against Histone deacetylase 3 and 31.6 µM in data set [4].

For `C[C@H](CCCNS(C)(=O)=O)[C@H]1CC[C@H]2/C(=C/C=C3C[C@@H](O)C[C@H](O)C3)CCC[C@]12C`, the half-maximal inhibitory concentration (IC50) at Vitamin D3 receptor worked out at 0.213 µM; against Histone deacetylase 3 it was 730 µM; in data set [4], 71.3 µM.

On to `CCCCS(=O)(=O)NCCCC[C@@H](C)[C@H]1CC[C@H]2/C(=C/C=C3C[C@@H](O)C[C@H](O)C3)CCC[C@]12C`, for which the Activity stood at 1.99 mmol/L in the data set with Mus musculus [6], 1.99 mmol/L in the data set with Mus musculus [7], 2.05 mmol/L in the data set with Mus musculus [8] and 2.12 mmol/L in the data set on Mus musculus [9]. Also, the IC50 against Vitamin D3 receptor is 0.029 µM; on Histone deacetylase 3, 725 µM; in data set [4], 101 µM.

As to `C[C@H](CCCC(=O)Nc1ccccc1N)[C@H]1CC[C@H]2/C(=C/C=C3C[C@@H](O)C[C@H](O)C3)CCC[C@]12C`, the Activity in the data set on Mus musculus [1] is given as 2.05 mmol/L; in the data set with Mus musculus [2], 2.07 mmol/L; with Mus musculus [3] it was 1.89 mmol/L; in the data set on Mus musculus [5], 2.14 mmol/L. Also, the 50% inhibitory concentration (IC50) at Vitamin D3 receptor was determined as 0.524 µM; on Histone deacetylase 3, 460 µM; in [4], 330 µM.

As for `C[C@H](CCCCNS(=O)(=O)C(F)(F)F)[C@H]1CC[C@H]2/C(=C/C=C3C[C@@H](O)C[C@H](O)C3)CCC[C@]12C`, the IC50 was 0.014 µM against Vitamin D3 receptor, 695 µM against Histone deacetylase 3 and 153 µM in data set [4].

As to `C[C@H](CCCCNS(N)(=O)=O)[C@H]1CC[C@H]2/C(=C/C=C3C[C@@H](O)C[C@H](O)C3)CCC[C@]12C`, the IC50 against Vitamin D3 receptor was 0.28 µM; at Histone deacetylase 3, 470 µM; in [4] it was 50.4 µM.

As to `C[C@H](CCCC(=O)NO)[C@H]1CC[C@H]2/C(=C/C=C3C[C@@H](O)C[C@H](O)C3)CCC[C@]12C`, the 50% inhibitory concentration (IC50) on Histone deacetylase 3 was determined as 3.2 µM; in [4] it was 9.3 µM.

In the case of `CNC(=O)C(=O)CCCC[C@@H](C)[C@H]1CC[C@H]2/C(=C/C=C3C[C@@H](O)C[C@H](O)C3)CCC[C@]12C`, the outcome in the data set on AT84 was Active. Further, the IC50 came out at 90.4 µM at Histone deacetylase 2, 36 µM against Histone deacetylase 3 and 64 µM in data set [4].

For `C[C@H](CCCCNS(=O)(=O)c1ccccc1)[C@H]1CC[C@H]2/C(=C/C=C3C[C@@H](O)C[C@H](O)C3)CCC[C@]12C`, the Activity is given as 2.07 mmol/L in the data set with Mus musculus [6], 2.05 mmol/L in the data set with Mus musculus [7], 1.95 mmol/L in the data set on Mus musculus [8] and 2.03 mmol/L with Mus musculus [9]. Besides, the IC50 against Vitamin D3 receptor came out at 0.015 µM; against Histone deacetylase 3, 508 µM; in data set [4], 293 µM.

On to `C[C@H](CCCCNS(C)(=O)=O)[C@H]1CC[C@H]2/C(=C/C=C3C[C@@H](O)C[C@H](O)C3)CCC[C@]12C`, for which the Activity with Mus musculus [1] came out at 2.22 mmol/L; with Mus musculus [2], 2.01 mmol/L; in the data set on Mus musculus [3], 1.88 mmol/L; with Mus musculus [5], 1.92 mmol/L. Besides, the IC50 on Vitamin D3 receptor was found to be 0.321 µM; against Histone deacetylase 3 it was 718 µM; in data set [4], 191 µM.
